pIC50: −log10 of the molar value. Read-outs that look alike come from different tables or passages of the source.
How the values were obtained:
recombinant murine JAK3 = biological target: T1, recombinant murine JAK3 (Mus musculus, UniProt Q62137); assay: Immune complex kinase assay, recombinant JAK3 from baculovirus expression system; type: biochemical; conditions: recombinant murine JAK3, FIG. 6B
T1 construct: made in house; host or cells: Sf21 insect cells, baculovirus
T1 sequence (Q62137 1-1100): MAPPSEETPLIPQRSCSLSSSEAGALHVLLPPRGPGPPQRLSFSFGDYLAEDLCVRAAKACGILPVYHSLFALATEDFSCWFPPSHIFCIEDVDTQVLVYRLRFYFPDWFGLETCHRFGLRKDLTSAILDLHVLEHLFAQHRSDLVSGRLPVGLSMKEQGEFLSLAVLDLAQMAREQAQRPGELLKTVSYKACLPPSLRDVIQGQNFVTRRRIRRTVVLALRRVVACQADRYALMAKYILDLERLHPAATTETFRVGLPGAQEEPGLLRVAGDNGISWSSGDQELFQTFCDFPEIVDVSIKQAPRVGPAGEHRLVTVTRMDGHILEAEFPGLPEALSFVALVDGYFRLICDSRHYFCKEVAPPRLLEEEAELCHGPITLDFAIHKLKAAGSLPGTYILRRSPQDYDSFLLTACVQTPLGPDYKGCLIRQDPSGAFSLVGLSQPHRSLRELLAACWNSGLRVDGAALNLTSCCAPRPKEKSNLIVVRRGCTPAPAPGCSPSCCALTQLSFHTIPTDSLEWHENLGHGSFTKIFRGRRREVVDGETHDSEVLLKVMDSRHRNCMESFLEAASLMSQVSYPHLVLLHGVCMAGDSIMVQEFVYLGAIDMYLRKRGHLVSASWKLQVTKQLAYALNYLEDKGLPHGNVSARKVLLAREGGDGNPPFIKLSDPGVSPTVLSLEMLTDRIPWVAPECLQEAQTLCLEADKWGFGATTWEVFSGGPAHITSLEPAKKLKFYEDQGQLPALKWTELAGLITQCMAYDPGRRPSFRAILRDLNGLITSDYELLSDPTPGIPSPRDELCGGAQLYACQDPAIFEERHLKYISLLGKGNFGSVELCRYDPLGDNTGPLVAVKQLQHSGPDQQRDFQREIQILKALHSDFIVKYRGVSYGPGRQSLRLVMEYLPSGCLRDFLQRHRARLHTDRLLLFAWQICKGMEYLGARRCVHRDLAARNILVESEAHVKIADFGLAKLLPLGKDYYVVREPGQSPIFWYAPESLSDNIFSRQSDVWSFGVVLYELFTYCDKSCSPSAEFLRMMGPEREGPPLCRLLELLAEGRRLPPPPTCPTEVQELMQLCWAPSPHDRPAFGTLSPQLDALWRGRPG
Protocol: (§1) Immune Complex Kinase Assays.
KL-2 EBV-transformed human lymphoblastoid B cells (native JAK3 kinase assays) or insect ovary cells (recombinant JAK3 kinase assays) were lysed with NP-40 lysis buffer (50 mM Tris, pH 8, 150 mM NaCl, 5 mM EDTA, 1% NP-40, 100 μM sodium orthovanadate, 100 μM sodium molybdate, 8 μg/ml aprotinin, 5 μg/ml leupeptin, and 500 μM PMSF) and centrifuged 10 minutes at 13000×g to remove insoluble material. Samples were immunoprecipitated with antisera prepared against JAK3. The antisera were diluted and immune complexes collected by incubation with 15 μl protein A Sepharose. After 4 washes with NP-40 lysis buffer, the protein A Sepharose beads were washed once in kinase buffer (20 mM MOPS, pH 7.0, 10 mM MgCl2) and resuspended in the same buffer. Reactions were initiated by the addition of 25 μCi γ[^32P] ATP (5000 Ci/mMole) and unlabeled ATP to a final concentration of 5 μM. Reactions were terminated by boiling for 4 min in SDS sample buffer. Samples were run on 9.5% SDS polyacrylamide gels and labeled proteins will be detected by autoradiography. […] For each drug concentration, a kinase activity index (KA) was determined by comparing the kinase activity in phosphorimager units (PIU) to that of the baseline sample. […]

recombinant JAK1 = biological target: T2, recombinant JAK1 (Homo sapiens, UniProt P23458); assay: Immune complex kinase assay, recombinant JAK1; type: biochemical; conditions: FIG. 6C & D
T2 construct: made in house; host or cells: Sf21 insect cells, baculovirus
From the text: as §1

[1] = test system: JAK3-dependent STAT activation; assay: EMSA, IL-2 triggered STAT activation in 32Dc11/IL2Rβ cells; type: cell-based
Protocol: (§2) Electrophoretic Mobility Shift Assays (EMSAs). EMSAs were performed to examine the effects of dimethoxyquinazoline compounds on cytokine-induced STAT activation (Goodman et. al., 1998). […] Cells were collected after 15 minutes and resuspended in lysis buffer (100 mM Tris-HCl pH 8.0, 0.5% NP-40, 10% glycerol, […], 0.1 mM NaVO3, 50 mM NaF, 150 mM NaCl, 1 mM DTT, 3 μg/ml Aprotinin, 2 μg/ml Pepstatin A, 1 μg/ml Leupeptin and 0.2 mM PMSF). Lysates were precleared by centrifugation for 30 min. Cell extracts (approximately 10 μg) were incubated with 2 μg of poly(dI-dC) for 30 minutes, followed by a 30 minutes incubation with 1ng of poly. nucleotide kinase-^32P labeled double stranded DNA oligonucleotide representing the IRF-1 STAT DNA binding sequence (Santa Cruz Biotechnology, Santa Cruz, Calif.). Samples were resolved by non-denaturing PAGE and visualized by autoradiography.

[2] = test system: JAK1/JAK2-dependent STAT activation; assay: EMSA, IL-3 triggered STAT activation in 32Dc11/IL2Rβ cells; type: cell-based; conditions: 10 μg/ml
Protocol: as §2

RBL-2H3 mast cells = assay: IgE/antigen-induced degranulation and mediator release; type: cell-based, rat; conditions: 1 h preincubation, DNP-BSA challenge; at ≧30 μM
From the text: Vehicle treated control RBL-2H3 cells released 45.1±3.1% of their hexosaminidase contents after DNP-BSA challenge. […] Vehicle treated control cells released 11.3±1.3 pg LTC4, and 160±33.0 pg TNFα/10^6 mast cells. The results on LTC4 and TNFα release are expressed as percent of maximum control release from vehicle treated control mast cells. The data points represent the mean±SEM values obtained from 3-6 independent experiments. […] *P<0.05 and **P<0.0001 compared to control as determined by Student's t test.
Supernatants were removed and saved.

recombinant JAK2 = recombinant JAK2 (Homo sapiens, UniProt O60674); assay: Immune complex kinase assay, recombinant JAK2; conditions: FIG. 6C & D
Sequence of recombinant JAK2 (O60674 whole entry): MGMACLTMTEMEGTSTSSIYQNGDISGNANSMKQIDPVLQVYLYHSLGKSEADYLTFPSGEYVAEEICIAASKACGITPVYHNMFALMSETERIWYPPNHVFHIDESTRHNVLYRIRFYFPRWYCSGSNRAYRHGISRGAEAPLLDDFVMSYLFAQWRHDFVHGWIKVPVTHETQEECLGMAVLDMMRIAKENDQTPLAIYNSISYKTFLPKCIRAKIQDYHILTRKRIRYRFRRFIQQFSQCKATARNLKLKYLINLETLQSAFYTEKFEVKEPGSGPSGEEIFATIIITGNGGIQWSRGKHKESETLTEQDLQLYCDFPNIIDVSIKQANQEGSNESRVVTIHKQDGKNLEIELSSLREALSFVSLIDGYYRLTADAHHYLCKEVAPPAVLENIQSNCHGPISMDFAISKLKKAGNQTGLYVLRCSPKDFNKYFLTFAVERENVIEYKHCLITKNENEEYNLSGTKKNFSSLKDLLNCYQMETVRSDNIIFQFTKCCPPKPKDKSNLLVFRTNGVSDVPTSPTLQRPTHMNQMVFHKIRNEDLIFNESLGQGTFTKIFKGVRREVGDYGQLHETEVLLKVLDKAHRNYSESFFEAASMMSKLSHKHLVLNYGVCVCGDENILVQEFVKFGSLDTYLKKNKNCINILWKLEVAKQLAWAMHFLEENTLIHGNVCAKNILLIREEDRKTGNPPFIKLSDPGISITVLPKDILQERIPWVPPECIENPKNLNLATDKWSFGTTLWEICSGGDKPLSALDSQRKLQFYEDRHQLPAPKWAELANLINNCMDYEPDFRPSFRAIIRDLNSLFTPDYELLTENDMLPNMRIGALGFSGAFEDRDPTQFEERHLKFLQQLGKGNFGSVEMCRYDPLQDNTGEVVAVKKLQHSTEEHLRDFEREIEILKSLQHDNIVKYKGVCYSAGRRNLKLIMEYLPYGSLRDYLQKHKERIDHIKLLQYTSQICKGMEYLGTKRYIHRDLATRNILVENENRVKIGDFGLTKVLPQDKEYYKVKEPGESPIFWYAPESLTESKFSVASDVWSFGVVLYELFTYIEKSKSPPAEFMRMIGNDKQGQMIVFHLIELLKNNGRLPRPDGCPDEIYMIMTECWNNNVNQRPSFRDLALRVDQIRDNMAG
Protocol: In FIGS. 6A-6D, JAK3, JAK1, and JAK2 were immunoprecipitated from Sf21 insect ovary cells transfected with the appropriate baculovirus expression vectors and treated with WHI-P131, then subjected to in vitro kinase assays as described in the Examples below. The enzymatic activity of JAKs was determined by measuring autophosphorylation in a 10 minute kinase assay, as described in the Examples below. The kinase activity (KA) levels were expressed as percentage of baseline activity (%CON).
Immune Complex Kinase Assays. Sf21 (IPLB-SF21-AE) cells (Vassilev et. al., 1999, J. Biol. Chem,. 274:1646-1656) derived from the ovarian tissue of the fall armyworm Spodotera frugiperda, were obtained from Invitrogen and maintained at 26-28° C. in Grace's insect cell medium supplemented with 10% FBS and 1.0% antibiotic/antimycotic (GIBCO-BRL). Stock cells were maintained in suspension at 0.2-1.6×10^6/ml in 600 ml total culture volume in 1 L Bellco spinner flasks at 60-90 rpm. Cell viability was maintained at 95-100% as determined by trypan blue dye exclusion.
Sf21 cells were infected with a baculovirus expression vector for BTK, SYK, JAK1, JAK2, or JAK3, as previously reported (Mahajan et. al., 1999, J. Biol. Chem., 274:1646-1656). […]

T2 sequence (P23458 whole entry): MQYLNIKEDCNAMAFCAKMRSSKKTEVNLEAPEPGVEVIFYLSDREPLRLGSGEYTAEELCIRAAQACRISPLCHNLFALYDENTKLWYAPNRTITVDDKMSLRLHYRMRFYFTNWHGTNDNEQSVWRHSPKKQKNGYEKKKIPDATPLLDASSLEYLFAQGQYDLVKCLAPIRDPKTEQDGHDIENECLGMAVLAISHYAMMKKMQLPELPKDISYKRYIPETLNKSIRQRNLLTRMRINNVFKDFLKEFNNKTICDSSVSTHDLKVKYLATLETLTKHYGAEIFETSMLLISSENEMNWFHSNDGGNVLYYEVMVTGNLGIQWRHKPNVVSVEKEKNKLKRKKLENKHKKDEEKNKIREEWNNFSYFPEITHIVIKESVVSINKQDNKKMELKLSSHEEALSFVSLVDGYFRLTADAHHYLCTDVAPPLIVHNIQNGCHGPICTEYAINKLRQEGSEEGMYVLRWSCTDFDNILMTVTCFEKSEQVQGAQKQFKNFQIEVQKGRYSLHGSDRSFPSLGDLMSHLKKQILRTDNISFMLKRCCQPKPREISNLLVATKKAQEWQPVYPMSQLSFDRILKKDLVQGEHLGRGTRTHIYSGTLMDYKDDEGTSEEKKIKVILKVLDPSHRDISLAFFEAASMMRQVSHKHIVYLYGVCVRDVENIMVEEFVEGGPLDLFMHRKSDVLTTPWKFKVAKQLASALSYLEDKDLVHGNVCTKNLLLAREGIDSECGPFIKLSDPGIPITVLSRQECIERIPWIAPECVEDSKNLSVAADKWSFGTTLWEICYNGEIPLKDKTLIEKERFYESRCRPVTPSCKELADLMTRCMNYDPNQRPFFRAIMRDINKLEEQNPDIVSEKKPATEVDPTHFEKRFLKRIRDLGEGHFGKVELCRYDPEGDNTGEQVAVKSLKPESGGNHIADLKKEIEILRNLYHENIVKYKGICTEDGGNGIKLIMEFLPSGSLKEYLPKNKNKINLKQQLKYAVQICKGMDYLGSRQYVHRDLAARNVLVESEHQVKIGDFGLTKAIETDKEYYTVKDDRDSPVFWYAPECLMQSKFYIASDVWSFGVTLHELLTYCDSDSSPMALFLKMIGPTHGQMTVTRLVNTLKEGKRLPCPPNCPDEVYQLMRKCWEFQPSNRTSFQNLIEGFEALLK

Question: How did the IC50 (recombinant murine JAK3) turn out when `COc1cc2ncnc(Nc3ccc(O)c(Br)c3)c2cc1OC` [WHI-P154, 4-(3′-Bromo-4′-hydroxylphenyl)-amino-6,7-dimethoxyquinazoline] was run?
Answer: 48.1 µg/mL

Question: And the pIC50 (recombinant murine JAK3; molar value in brackets, read-out: IC50)?
Answer: ~3.89

Question: And the “inhibitory activity against recombinant JAK1” value (recombinant JAK1)?
Answer: did not exhibit any detectable inhibitory activity

Question: And the “JAK3-dependent STAT activation after stimulation with IL-2” value ([1]; 10 μg/ml, 32Dc11/IL2Rβ cells)?
Answer: inhibited

Question: What about the “IL-2 triggered JAK-3-dependent STAT activation” value ([1]; 100 μg/ml in FIG. 6E legend) of the same compound?
Answer: inhibited

Question: And the “JAK1/JAK2-dependent STAT activation after stimulation with IL-3” value [2]?
Answer: did not affect

Question: What about the LTC4 release (RBL-2H3 mast cells) of the same compound?
Answer: near to complete inhibition

Question: What about the TNFα release (RBL-2H3 mast cells) of the same compound?
Answer: near to complete inhibition

Question: And the “β-hexosaminidase release (degranulation)” value (RBL-2H3 mast cells)?
Answer: near to complete inhibition

Question: And the “inhibitory activity against recombinant JAK2” value (recombinant JAK2)?
Answer: did not exhibit any detectable inhibitory activity

— patent US6452005B1, “JAK-3 inhibitors for treating allergic disorders” (Parker Hughes Institute, priority 1999, dated 2002)
